Patent US12636323B2, “Use of Clostridium ghonii combined with tumor angiogenesis inhibitor” (priority 2021, dated 2026)

Legend:
[1] = Death and net body weight of tumor-bearing mice in Example 3; assay type: in vivo, BALB/c mice; details: mean ± SD, n=7
Protocol: Clinical observation: during an administration period, animal behaviors, death or near-death, etc. were observed using the naked eyes once every morning and afternoon.
Body weight: during the administration period, body weight was measured on the day of the tumor measurement from the day of treatment.
(§1) According to a random principle, the conforming mice (a tumor volume of 0.31-0.41 cm^3) were divided into 8 groups by lottery: control group, spore group, high-dose apatinib (AITAN) group, medium-dose apatinib (AITAN) group, low-dose apatinib (AITAN) group, Clostridium ghonii combined low-dose apatinib (AITAN) group, Clostridium ghonii combined medium-dose apatinib (AITAN) group, and Clostridium ghonii combined high-dose apatinib (AITAN) group.
(§2) Control group: the mice were intratumorally administrated with a same volume of a 0.9% sodium chloride injection; • spore group: the mice were intratumorally administrated at a dose of 1×10^7 cfu/tumor/time twice; • High-dose apatinib (AITAN) group: the mice were gavaged at a dose of 180 mg/kg/d once every day for a total of 7 times; • Medium-dose apatinib (AITAN) group: the mice were gavaged at a dose of 120 mg/kg/d once every day for a total of 7 times; • Low-dose apatinib (AITAN) group: the mice were gavaged at a dose of 60 mg/kg/d once every day for a total of 7 times; and
(§3) Clostridium ghonii combined apatinib (AITAN) groups: mice were first intratumorally administrated with apatinib (AITAN) once every day for 3 days and then Clostridium ghonii spores at a dose of 1×10^7 cfu/tumor/time once every other day for a total of two times. The dose of the apatinib (AITAN) in the combined high, medium and low-dose apatinib (AITAN) groups was the same as that in the high, medium and low-dose apatinib (AITAN) groups.

CT26 tumor cells = assay: Antitumor effect of Clostridium ghonii spores combined with different doses of apatinib (AITAN) in CT26 mouse model; assay type: in vivo, BALB/c mice; details: for Tumor inhibition rate (row head: Anti-bacterial rate): calculated from tumor weight; for Tumor weight: n=7; for Cure rate: tumors completely eliminated at end of experiment
Protocol: BALB/c mice were subcutaneously inoculated with CT26 tumor cells to establish a subcutaneous tumor model for colon cancer. 0.2 mL of a cell suspension with a concentration of 7.5×10^6 cells/mL (acceptable range: 6.75×10^6 cells/mL-8.25×10^6 cells/mL) was extracted with a 1-mL disposable sterile syringe and slowly subcutaneously injected into axillae of right forelimbs of mice (pre-sterilized with 75% alcohol). After injection, needle eyes were gently pressed with dry cotton balls.
Tumor measurement: a maximum long diameter (L) and a maximum transverse diameter (W) of a tumor (including a thickness of a mouse skin) were measured with a vernier caliper, and a tumor volume was calculated according to a formula of
Tumor weight: a tumor tissue was dissected out and weighed and tumor weight was recorded.
Tumor inhibition rate (IRTW%)=(average tumor weight of control group-average tumor weight of experimental group)/average tumor weight of control group×100%.
as §1, §2, §3

[2] = medium-dose apatinib 120 mg/kg/d

## N#CC1(c2ccc(NC(=O)c3cccnc3NCc3ccncc3)cc2)CCCC1 [apatinib (AITAN), apatinib]
[1]; high-dose apatinib 180 mg/kg/d
  Net body weight: 18.44 ± 1.42 g
[1]; low-dose apatinib 60 mg/kg/d
  Net body weight: 18.32 ± 1.12 g
[1]; [2]
  Net body weight: 18.02 ± 1.61 g
CT26 tumor cells; D-1, Table 2 (low-dose apatinib)
  Tumor volume: 1049.42 ± 166.37 mm^3
CT26 tumor cells; D-1, upper part of Table 2, low-dose apatinib 60 mg/kg/d
  Tumor volume: 931.50 ± 97.91 mm
CT26 tumor cells; D-4, Table 2 (low-dose apatinib)
  Tumor volume: 1499.45 ± 303.10 mm^3
CT26 tumor cells; D-4, upper part of Table 2, low-dose apatinib 60 mg/kg/d
  Tumor volume: 1489.82 ± 232.84 mm
CT26 tumor cells; D-8, Table 2 (low-dose apatinib)
  Tumor volume: 2442.80 ± 882.95 mm^3
CT26 tumor cells; D-8, upper part of Table 2, low-dose apatinib 60 mg/kg/d
  Tumor volume: 2275.35 ± 348.84 mm
CT26 tumor cells; high-dose apatinib 180 mg/kg/d
  Tumor inhibition rate (row head: Anti-bacterial rate): 21.68%
  Tumor weight: 3.49 ± 0.86 g
  Cure rate: 0%
CT26 tumor cells; low-dose apatinib 60 mg/kg/d
  Tumor inhibition rate (row head: Anti-bacterial rate): 20.21%
  Tumor weight: 3.55 ± 0.61 g
  Cure rate: 0%
CT26 tumor cells; [2]
  Tumor inhibition rate (row head: Anti-bacterial rate): 13.89%
  Tumor weight: 3.84 ± 0.69 g
  Cure rate: 0%
